In US20170224819A1, “Therapeutic Combinations of a BTK Inhibitor, a PI3K Inhibitor, a JAK-2 Inhibitor, and/or a CDK 4/6 Inhibitor” (Acerta Pharma B.V., priority 2014, published 2017):
Entries after “also recorded” stand apart in the source; their conditions may differ.

What was measured:
[1] = system: B cell receptor signals (CD69); experiment: Whole blood B cell receptor signaling, anti-IgD stimulated CD69 on CD19+ B cells; assay type: cell-based; settings: whole blood of four healthy donors, 2 hours incubation, anti-human IgD 18 hours
Description: Blood from four healthy donors was incubated for 2 hours with the compounds shown over a concentration range, and then stimulated with anti-human IgD [10 μg/mL] for 18 hours. The mean fluorescent intensity (MFI) of CD69 (and CD86, data not shown) on gated CD19+ B cells was measured by flow cytometry.

[2] = system: human platelet-mediated thrombosis; experiment: In vivo human thrombus formation in the VWF HA1 mice model (laser-induced injury); settings: pretreated human platelets
Description: Constitutive or aberrant activation of the BCR signaling cascade has been implicated in the propagation and maintenance of a variety of B cell malignancies. […] J. Haematol. […] In fact, both Tec and BTK play an important role in the regulation of phospholipase Cγ2 (PLCγ2) downstream of the collagen receptor glycoprotein VI (GPVI) in human platelets. […] Biotechnol.
Injury to the vessel wall of arterioles ([…] diameter) was performed using a pulsed nitrogen dye laser (440 nm, Photonic Instruments) applied through a 20× water-immersion Olympus objective (LUMPlanFl, 0.5 numerical aperature (NA)) of a Zeiss Axiotech vario microscope. […] The extent of thrombus formation was assessed for 2 minutes after injury and the area (μm^2) of coverage determined (Image IQ, Andor Technology).
The BTK inhibitor-treated human platelets were fluorescently labeled and infused continuously through a catheter inserted into the femoral artery.

[3] = system: GPVI platelet aggregation; experiment: GPVI (convulxin-induced) platelet aggregation; assay type: cell-based; settings: human platelets
Description: GPVI platelet aggregation was measured for Formula (XVIII) and Formula XX-A (ibrutinib). Blood was obtained from untreated humans, and platelets were purified from […] by centrifugation. Cells were resuspended to a final concentration of 350,000/μL in buffer containing 145 mmol/L NaCl, 10 mmol/L HEPES, 0.5 mmol/L Na2HPO4, 5 mmol/L KCl, 2 mmol/L MgCl2, 1 mmol/L CaCl2, and 0.1% glucose, at pH 7.4. Stock solutions of […] were prepared on the day of experimentation and added to platelet suspensions 5 minutes (37° C., 1200 rpm) before the induction of aggregation. Aggregation was assessed with a Chronolog Lumi-Aggregometer (model 540 VS; Chronolog, Havertown, Pa.) and permitted to proceed for 6 minutes after the addition of agonist. The results are reported as maximum percent change in light transmittance from baseline with platelet buffer used as a reference.
In FIG. 126, the results of CVX-induced (250 ng/mL) human platelet aggregation results before and 15 minutes after administration of the BTK inhibitors to 6 healthy individuals are shown.

Raji cells = experiment: Antibody-dependent NK cell-mediated cytotoxicity, chromium release assay; assay type: cell-based; settings: 1 μM; chromium-labeled Raji cells, 4 hours, variable rituximab concentrations, effector:target ratio 25:1; FIG. 134

Row | Structure (SMILES) | EC50 [1] [nM] | Effect on human platelet-mediated thrombus formation [2] | GPVI platelet aggregation [3] | antibody-dependent NK cell-mediated cytotoxicity (percent lysis of tumor cells) (Raji cells)
1 | C=CC(=O)Nc1cccc(Nc2nc(Nc3ccc(OCCOC)cc3)ncc2F)c1 [CC-292, N-(3-((5-fluoro-2-((4-(2-methoxyethoxy)phenyl)amino)pyrimidin-4-yl)amino)phenyl)acrylamide, reference compound] | 121 | interfere with thrombus formation; also recorded: showed an effect similar to Formula XX-A (ibrutinib) |  | 
2 | C=CC(=O)N1CCC[C@@H](n2nc(-c3ccc(Oc4ccccc4)cc3)c3c(N)ncnc32)C1 [ibrutinib, reference compound] |  |  | significantly inhibits GPVI platelet aggregation | antagonizes
